How the values were obtained:
[1] = test system: primary human hepatocytes (PHHs); assay: Primary human hepatocyte cytotoxicity (MTS assay); assay type: cell-based; details: 72 h, highest concentration tested 100 µM, mean ± SD, read-out: PHH CC50
Procedure: PHH cytotoxicity was determined by MTS assays following 72 h compound exposure, as described in Woodson et al. ([27]).

MDCK-MDR1 cells = assay: MDCK-MDR1 permeability assay; assay type: in vitro ADME; details: 10 µM compound, 2 h; for Efflux Ratio (Papp B-A/A-B): MDCK-MDR1 cells, actively effluxed if >2
Procedure: MDCK-MDR1 cells were seeded on 96-well, high protein binding immobilon-P membrane plates (Millipore Sigma) at 2.4 × 10^4 cells per well for 4 days. Media were then decanted, and the cells were equilibrated with Hanks balanced salt solution (HBSS) supplemented with 10 mM CaCl2 and 1 mM MgCl2 for 1 h. Compound (10 µM) was then added to the apical side to assess active transport and to the basolateral side to assess active efflux. The cells were incubated with compound for 2 h with shaking at 37°C. Samples (50 µL) were retrieved from the recipient wells and mixed with 150 µL acetonitrile (ACN) and internal standard (1:1 of 200 ng/mL chloridazon:enalapril). Samples were pelleted at 4,000 × g and the supernatant was analyzed by liquid-chromatography/tandem mass spectrometry (LCMS/MS) analyses. […]. Active efflux was determined by Papp B/A/Papp A/B.
Tight junction formation was assessed by lucifer yellow permeation immediately following sample retrieval. Briefly, lucifer yellow (10 µM) was added to the apical wells and HBSS was added to the basolateral wells for 1 h with shaking at 37°C, after which sample was collected from the basolateral side and read on a Biotek Synergy HTX multi-mode plate reader with 485/20 excitation and 520/20 emission filters defined by the Center Wavelength/band-pass values. The percent lucifer yellow fluorescence was determined by subtracting the HBSS relative fluorescent units (RFU) from the sample RFU and normalizing to the lucifer yellow positive control RFU. Lucifer yellow permeation was determined to be acceptable if ≤3%.

plasma proteins = assay: Plasma protein binding, rapid equilibrium dialysis; assay type: in vitro ADME, bovine; details: 10 µM compound, DMEM-F12 with 10% FBS (0.25 mg/mL BSA), 4 h, 37°C
Procedure: Plasma protein binding was performed using the Pierce rapid equilibrium dialysis device (Thermo Fisher) per the manufacturer’s instructions, as described ([27]). Briefly, the sample wells contained DMEM-F12 supplemented with 10% FBS spiked with 10 µM compound, and the buffer wells contained phosphate-buffered saline (PBS). The plate was incubated for 4 h at 37°C with shaking, after which 50 µL was retrieved from the buffer and sample wells and added to ice-cold acetonitrile and the internal standard described above. Samples were matrix-matched with PBS supplemented with 10% FBS or PBS alone, respectively, and centrifuged at 4,000 × g for 5 min to pellet plasma proteins. The supernatants were analyzed by LCMS/MS and percent compound bound was determined, as described previously ([27]).

CYP3A4 mRNA expression = assay: CYP3A4 induction, RT-qPCR in HepG2 cells; details: 10 µM, 24 or 48 h, normalized to GAPDH and DMSO
Procedure: HepG2 cells were seeded on 12-well, tissue-culture-treated plates (Sarstedt) at 2.5 × 10^5 cells/well for 24 h. Cells were treated with 10 µM compound or 1% DMSO for 48 h with replenishment at 24 h. Cells were rinsed with PBS and lysed at 0, 24, and 48 h using TRI Reagent (Sigma Aldrich). […] Cellular DNA was degraded using DNase I (Invitrogen), according to the manufacturer’s instructions.
Complementary DNA (cDNA) synthesis employed the ProtoScript II First Strand cDNA Synthesis Kit (New England Biolabs) according to the manufacturer’s instructions with an additional incubation step at 25°C for 5 min. Reverse transcriptase-qPCR (RT-qPCR) was performed using a Quantstudio 5 (Thermo Fisher) in a final reaction volume of 20 µL with 4 µL cDNA template, 2× KAPA probe force master mix (Roche), 300 nM probe, and 100 nM forward and reverse primer. CYP3A4 expression was determined by normalizing the experimental sample cycle threshold values to DMSO-treated wells. GAPDH was used as a housekeeping gene.

[2] = test system: HBV plus-polarity DNA in hepDES19 cells; assay: Effect of plasma proteins on compound potency; assay type: cell-based, hepatitis B virus; details: 10 µM compound, 72 h, media with BSA to 40 mg/mL versus 10% FBS (0.25 mg/mL BSA)
Procedure: HBV plus-polarity DNA suppression was assessed in hepDES19 cells following compound treatment for 72 h. Cells incubated with compound (10 µM) in either normal tissue culture media conditions containing 10% FBS, or in media supplemented with bovine serum albumin (BSA) to 40 mg/mL. Percent inhibition was determined, as described previously ([27], [28]). The presence of increased BSA levels was determined to affect compound potency if there was a statistically significant decrease in percent HBV plus polarity DNA suppression when compared to cells treated with compound in normal media conditions. Three or more replicate assays were performed on separate days.

In the case of `CC(=NOCc1cccc(F)c1)c1c(C)cc(=O)n(O)c1O` [Compound 1618], the CC50 [1] is reported as 93.8 ± 10.7 µM, the “MDCK-MDR1 Papp category, apical to basolateral (A-B)” value (MDCK-MDR1 cells) is reported as “low (low (<1*10^−6 cm/s))” and the “MDCK-MDR1 Papp category, basolateral to apical (B-A)” value (MDCK-MDR1 cells) is reported as “low (low (<1*10^−6 cm/s))”. The “Efflux Ratio (Papp B-A/A-B)” value (MDCK-MDR1 cells) was 0.84, the Percent bound (plasma proteins) was 93.5 ± 0.129% and the “CYP3A4 mRNA expression increase” value (CYP3A4 mRNA expression) was < 2 fold.

`CC(=NOCc1ccc(F)c(F)c1)c1c(C)cc(=O)n(O)c1O` [Compound 1617] was tested, and the “MDCK-MDR1 Papp category, apical to basolateral (A-B)” value (MDCK-MDR1 cells) was “low (low (<1*10^−6 cm/s))”, the “MDCK-MDR1 Papp category, basolateral to apical (B-A)” value (MDCK-MDR1 cells) was “low (low (<1*10^−6 cm/s))” and the “Efflux Ratio (Papp B-A/A-B)” value (MDCK-MDR1 cells) was 1.01. The Percent bound (plasma proteins) was 100 ± 0.019% and the “Effect of increased albumin on HBV plus polarity DNA suppression” value [2] was “physiologically relevant”.

Source: paper PMC11784145, “Efficacy and in vitro pharmacological assessment of novel N-hydroxypyridinediones as hepatitis B virus ribonuclease H inhibitors” (Antimicrobial Agents and Chemotherapy, 2024)
